# Reference: patent US20060040859A1, “Peptides, DNAs, RNAs, and compounds for inhibiting or inducing adrenomedullin activity, and use of the same” (priority 2002, published 2006)
# Entries after “also recorded” stand apart in the source; their conditions may differ.
# Assays:
# [1] = tested on: proliferating cell nuclear antigen (PCNA) of tumor cells; test: Anti-PCNA staining of tumor cells (Example 5); type: in vivo, mouse; settings: for cells reacting with the anti-PCNA antibody: FIG. 6; for PCNA-labelling index: tumor cells of treated mice
# Excerpt: The effect of a peptide of the present invention on cell proliferation was examined. The proliferating cell nuclear antigen (PCNA) of tumor cells from the mice used in Example 2 was stained with anti-PCNA antibody. The staining method was the same as in Example 4. Five mice were used in the experiment. The staining results for tumor cells of an adrenomedullin-administered mouse are shown on the left side in FIG. 6, while those of an adrenomedullin antagonist-administered mouse are shown on the right side.
# PCI-43 cells [2] = test: Intra-tumoral injection of AM or AMA peptide, tumor size of PCI-43 xenograft (Example 2); type: in vivo, mouse; settings: 50 μg in 0.1 ml saline into the tumor once a day, 7th to 16th day, observed to 21st day, SCID mice
# Description: On the dorsal side of a CB17lcr-scid Jl mouse (CLEA JAPAN Inc.), 10^7 PCI-43 cells were subcutaneously transplanted. It was confirmed that PCI-43 cells proliferated to form a tumor, and that the tumor diameter exceeded 5 mm after 7 days. After that confirmation, 50 μg […] each of adrenomedullin and a peptide of the present invention (dissolved in 0.1 ml of physiological saline) was injected into the tumor once a day starting on the 7th day until the 16th day. A peptide consisting of SEQ ID NO: 2 was used as the peptide of the present invention (hereinafter also referred to as an “adrenomedullin antagonist (AMA)”). This peptide was purchased from Wako Pure Chemical Industries, Ltd.
# The tumor diameter was megascopically measured every three days. Results are shown in FIG. 2, a graphical representation of tumor sizes when adrenomedullin, adrenomedullin antagonist, and physiological saline (V3), respectively, were administered. The horizontal axis represents the number of days after transplanting PCI-43 cells, and the vertical axis the size of the tumor in volume (mm^3). Arrows at the upper part of the graph indicate timings of administration of adrenomedullin, adrenomedullin antagonist, and physiological saline. Five CB 17lcr-scid Jl mice were used in each group.
# [3] = tested on: newly generated blood vessels; test: Anti-CD31 staining and diameters of newly generated blood vessels in tumor tissue (Example 4); type: in vivo, mouse; settings: for Average ± standard deviation of blood vessel diameters: 100 newly generated blood vessels; for Number of blood vessels 2 μm to less than 8 μm / Number of blood vessels 8 μm or more / Number of blood vessels less than 2 μm: of 100 arbitrarily selected newly generated blood vessels, by diameter; for newly generated blood vessels by anti-CD31 staining: tumor tissue of Example 3 mice, FIG. 5
# Description: The effect of a peptide of the present invention on angiogenesis was examined. Experiments were carried out with the tumor tissues of mice used in Example 3. Mouse tumor tissues were extirpated, and CD31 antigen, which is the cell surface marker specific for vascular endothelial cells, was stained with anti-CD31 antibody. Staining was performed as described below. The experiments were carried out using five mice.
# Tumor tissues were frozen in liquid nitrogen to prepare frozen sections. After the frozen sections were pre-treated in albumin solution for 30 min, endogenous peroxidase activity was suppressed with hydrogen peroxide, and then, the sections were treated with anti-CD31 antibody for 1 h at room temperature. After washing, the sections were treated with a secondary antibody for 1 h, and coloured using […].
# Next, 100 newly generated blood vessels of the vascular endothelial cells used in Example 4 were arbitrarily selected to measure their respective diameters. In Table 1, results of the number of the newly generated blood vessels classified by their diameters into three groups (less than 2 μm, 2 μm to less than 8 μm, and 8 μm or more) are shown together with the average of blood vessel diameters and standard deviations. In Table 1, AM stands for adrenomedullin, and AMA adrenomedullin antagonist.
# PCI-43 cells [4] = test: Intra-tumoral injection of AM or AMA peptide, extirpated PCI-43 tumor size and weight (Example 3); type: in vivo, mouse
# Description: On the dorsal side of CB17lcr-scid Jl mice (CLEA JAPAN Inc.), 10^7 PCI-43 cells were subcutaneously transplanted. It was confirmed that PCI-43 cells proliferated to form a tumor, and that the tumor diameter exceeded 5 mm after 7 days. After that confirmation, 50 μg each […] of adrenomedullin and adrenomedullin antagonist (dissolved in 0.1 ml of physiological saline) was injected into the tumor once every three days from the 7th day, that is, on the 7th, 10th, 13th, and 16th days. Adrenomedullin and adrenomedullin antagonist used herein were the same as those used in Example 1.
# Mice were sacrificed on the 21st day, and tumors were extirpated and weighed.
# HUVEC cells [5] = test: MTS assay, AMA with AM on endothelial cells under hypoxic and nutrient-deprived conditions (Example 7C); type: cell-based; settings: AM 10^-6 M, AMA 0 to 10^-6 M, VEGF and FGF 10 ng/ml, 48 h
# Description: (§1) The effect of both AM and AMA together on the growth and apoptosis of endothelial cells under extreme conditions (hypoxic and nutrient-deprived) and in the presence of growth factors is examined herein. As in Example 1 above, hypoxic conditions comprised culture in 1% O2 concentration for 12 h using a hypoxic culture chamber (Wakenyaku Industry) and nutrient-deprived conditions involved addition of only 13 mg/dl glucose.
# (§2) Five×10^3 cells (2×10^4 in some experiments) were plated in wells of 96-well plates. Human adrenomedullin (AM) (SEQ ID NO: 1) was added at a concentration of 10^−6 M and a human adrenomedullin antagonist peptide (AMA) (SEQ ID NO: 2) was added at indicated concentrations, ranging from 0 to 10^−6 M. VEGF and FGF were added at 10 ng/ml. The cells were incubated for 48 h and the viable cell numbers were determined by the MTS assay according to the manufacturer's instructions as described above in Example 7A.
# cancer cells = test: In vitro growth of cancer cells with AMA; type: cell-based
# HUVEC cells [6] = test: MTS assay, endothelial cells under hypoxic and nutrient-deprived conditions with VEGF and FGF (Example 7B); type: cell-based; settings: hypoxic and glucose-deprived, AM 0 to 10^-6 M, VEGF and FGF 10 ng/ml, 48 h
# Description: as §1, with “of” for “of both”, “AM” for “AM and AMA together”
# as §2, with “1)” for “1) was added at a concentration of 10^−6 M and a human adrenomedullin antagonist peptide (AMA) (SEQ ID NO: 2)”
# [7] = tested on: Mitogen-activated protein kinases (MAPKS); test: MAPK activity in Rat-2 cells; type: cell-based
# Excerpt: (§3) In order to skip this problem, cell lines expressing endogenous adrenomedullin binding. Three cell lines to date are available. L6 cells are a rat myoblast cell line known to express CGRP1 receptors, Swiss 3T3 cells are a mouse fibroblast cell line, and Rat-2 cells are rat fibroblasts. […] L6 cells express CRLR and RAMPs 1 and 2. In Swiss 3T3 cells the effects of adrenomedullin were mediated via specific adrenomedullin receptors. […] These cells are useful in establishing the screening system to inhibit functionally the intracellular signal transduction after a receptor engagement by adrenomedullin.
# U87 glioblastoma cells = settings: exogenously added; cited from earlier work
# Rat-2 cells = test: Intracellular cAMP in Rat-2 cells; type: cell-based; settings: in the absence of CGRP binding
# Excerpt: as §3
# HUVEC cells [8] = test: MTS assay, endothelial cell growth under normoxic, normal glucose conditions (Example 7A); type: cell-based; settings: AM 0 to 10^-6 M, 48 h, normoxic and nutrient-supplied
# Description: The effect of AM on the growth of endothelial cells under normal conditions (normoxia, normal glucose) is examined herein. As in Example I above, normoxic conditions comprised culture in 20% O2 concentration and normal glucose conditions involved addition of 100 mg/dl of glucose or higher.
# Five×10^3 cells (2×10^4 in some experiments) were plated in wells of 96-well plates. Human adrenomedullin (AM) (SEQ ID NO: 1) was added at indicated concentrations, ranging from 0 to 10^−6 M. The cells were incubated for 48 h and the viable cell numbers were determined by MTS assay according to the manufacturer's instructions. Cell viability can be reflected by the integrity of the mitochondria. When the MTS reagent (a tetrazolium salt) is applied to living cells, it is converted to a color compound (formazan) […] at 490 nm. Accordingly, the MTS assay may be used to assay cell viability and to count viable cells.
Substance,cells reacting with the anti-PCNA antibody [1],PCNA-labelling index [1],Average ± standard deviation of blood vessel diameters [3],Number of blood vessels 2 μm to less than 8 μm [3],Number of blood vessels 8 μm or more [3],Number of blood vessels less than 2 μm [3],newly generated blood vessels by anti-CD31 staining [3],"apoptosis of endothelial cells (viable cells, O.D.) (HUVEC cells [6])",also measured
"AMA: 31 amino acid truncated human adrenomedullin lacking the first 21 N-terminal amino acids (SEQ ID NO: 2), purchased from Wako",few cells reacted with the anti-PCNA antibody,6.3±5.2,2.276 ± 1.120 μm,44,1,55,newly generated blood vessels were thin,–,"proliferating cells compared to adrenomedullin-administered mice ([1]; mouse, in vivo): decreased by about one quarter; tumor size (volume) (PCI-43 cells [2]; listed as adrenomedullin antagonist): became almost megascopically invisible; also recorded: reduction in tumor volume; blood vessel diameters relative to adrenomedullin-administered mice ([3]; mouse, in vivo): one half; tumor weight relative to adrenomedullin-administered group (PCI-43 cells [4]; 21st day): about half; size of the extirpated tumor compared to adrenomedullin-administered group (PCI-43 cells [4]; 21st day, photograph FIG. 3, listed as adrenomedullin antagonist): became smaller; also recorded: noticeably smaller; apoptosis of endothelial cells (viable cells, O.D.) (HUVEC cells [5]): induced apoptosis of the endothelial cells in a dose dependent manner; growth inhibitory effect on cancer cells in vitro (cancer cells): did not exhibit any growth inhibitory effect"
VEGF,–,–,–,–,–,–,–,underwent apoptosis,–
"adrenomedullin (YRQSMNNFQGLRSFGCRFGTCTVQKLAHQIYQFTDKDKDNVAPRSKISPQGY; listed as Homo sapiens) [AM, reference compound]",many cells reacting with the anti-PCNA antibody were present,25.8±3.9,6.454 ± 5.313 μm,54,31,15,thick blood vessels were newly generated,protected the endothelial cells from apoptosis,"PDGF-stimulated and basal MAPK activity [7]: potently and dose-dependently inhibited; tumor size (volume) (PCI-43 cells [2]): the tumor size hardly changed; growth of glioblastoma cells in vitro (U87 glioblastoma cells): can stimulate the growth; tumor weight (PCI-43 cells [4]; 50 μg into the tumor on 7th, 10th, 13th, 16th days, tumors extirpated on 21st day): about 0.05 g; intracellular cAMP (Rat-2 cells): dose-dependent stimulation of intracellular cAMP; growth of endothelial cells (viable cells, O.D.) (HUVEC cells [8]): no significant effect"
